In ChEMBL document CHEMBL4043290, “Structure-based Design of Pyridone-Aminal eFT508 Targeting Dysregulated Translation by Selective Mitogen-activated Protein Kinase Interacting Kinases 1 and 2 (MNK1/2) Inhibition” (J Med Chem, 2018):
Blank lines part the entries; values can stand above or below the molecule they belong to.

Legend:
[1] = target: MAP kinase-interacting serine/threonine-protein kinase 1 (Homo sapiens, UniProt Q9BUB5)
HCT-116 = experiment: Antiproliferative activity against human HCT116 cells after 72 hrs by CellTiter-Glo assay; type: functional, cell-based; settings: HCT-116, 72 h
[2] = target: Tyrosine-protein kinase ABL1 (Homo sapiens) (UniProt P00519); experiment: Inhibition of Abl1 (unknown origin) at 1 uM relative to control
[3] = target: Vascular endothelial growth factor receptor 2 (Homo sapiens) (UniProt P35968); experiment: Inhibition of KDR (unknown origin) at 1 uM relative to control
[4] = target: Tyrosine-protein kinase Yes (Homo sapiens) (UniProt P07947); experiment: Inhibition of YES1 (unknown origin) at 1 uM relative to control
[5] = target: Tyrosine-protein kinase Lck (Homo sapiens) (UniProt P06239); experiment: Inhibition of LCK (unknown origin) at 1 uM relative to control
[6] = target: Receptor-type tyrosine-protein kinase FLT3 (Homo sapiens) (UniProt P36888); experiment: Inhibition of FLT3 (unknown origin) at 1 uM relative to control
[7] = target: Platelet-derived growth factor receptor beta (Homo sapiens) (UniProt P09619); experiment: Inhibition of PDGFRB (unknown origin) at 1 uM relative to control
SW-620 = experiment: Antiproliferative activity against human SW620 cells after 72 hrs by CellTiter-Glo assay; type: functional, cell-based; settings: SW-620, 72 h
[8] = target: Proto-oncogene tyrosine-protein kinase receptor Ret (Homo sapiens) (UniProt P07949); experiment: Inhibition of RET (unknown origin) at 1 uM relative to control
[9] = target: Dual specificity tyrosine-phosphorylation-regulated kinase 1A (Homo sapiens) (UniProt Q13627); experiment: Inhibition of DYRK1A (unknown origin) at 1 uM relative to control
[10] = target: Platelet-derived growth factor receptor alpha (Homo sapiens) (UniProt P16234); experiment: Inhibition of PDGFRA (unknown origin) at 1 uM relative to control
[11] = target: Aurora kinase A (Homo sapiens) (UniProt O14965); experiment: Inhibition of aurora A (unknown origin) at 1 uM relative to control
[12] = target: MAP kinase-interacting serine/threonine-protein kinase 1/2 (Homo sapiens, UniProt Q9HBH9+Q9BUB5)
[13] = target: MAP kinase-interacting serine/threonine-protein kinase 2 (Homo sapiens, UniProt Q9HBH9)
PC-3 = experiment: Antiproliferative activity against human PC3 cells after 72 hrs by CellTiter-Glo assay; type: functional, cell-based; settings: PC-3, 72 h
in vitro = settings: human, Caco-2
[14] = Oral bioavailability in Balb/c mouse at 10 mg/kg by LC-ESI-TOF/MS or LC-ESI-MS/MS method; type: ADME, organism-based; settings: in vivo
[15] = target: Dual specificity tyrosine-phosphorylation-regulated kinase 2 (Homo sapiens) (UniProt Q92630); experiment: Inhibition of DYRK2 (unknown origin) at 1 uM relative to control
[16] = Metabolic stability in rat liver microsomes assessed as parent compound remaining at 1 uM after 30 mins by LC-ESI-TOF/MS method; type: ADME, microsome; settings: read-out: Stability
[17] = target: T1, Serine/threonine-protein kinase 17A (Homo sapiens) (UniProt Q9UEE5); experiment: Inhibition of DRAK1 (unknown origin) at 1 uM relative to control
T1 sequence (whole entry): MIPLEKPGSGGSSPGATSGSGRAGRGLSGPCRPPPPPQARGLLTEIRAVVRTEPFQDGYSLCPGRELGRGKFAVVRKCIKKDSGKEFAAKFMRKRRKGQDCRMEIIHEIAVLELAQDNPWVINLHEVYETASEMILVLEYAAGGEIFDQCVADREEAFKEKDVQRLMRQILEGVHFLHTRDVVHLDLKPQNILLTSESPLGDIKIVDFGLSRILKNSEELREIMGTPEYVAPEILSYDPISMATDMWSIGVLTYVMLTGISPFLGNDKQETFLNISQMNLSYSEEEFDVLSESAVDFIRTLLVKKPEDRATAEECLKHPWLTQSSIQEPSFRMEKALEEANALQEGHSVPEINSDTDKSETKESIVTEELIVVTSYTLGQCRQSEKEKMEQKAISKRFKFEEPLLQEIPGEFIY

[18] = Oral bioavailability in Sprague-Dawley rat at 10 mg/kg by LC-ESI-TOF/MS or LC-ESI-MS/MS method; type: ADME, organism-based; settings: in vivo
physchem = settings: octanol/water
[19] = Metabolic stability in mouse liver microsomes assessed as parent compound remaining at 1 uM after 30 mins by LC-ESI-TOF/MS method; type: ADME, microsome; settings: read-out: Stability
[20] = Metabolic stability in human liver microsomes assessed as parent compound remaining at 1 uM after 30 mins by LC-ESI-TOF/MS method; type: ADME, microsome; settings: read-out: Stability
[21] = target: T2, Serine/threonine-protein kinase BRSK1 (Homo sapiens) (UniProt Q8TDC3); experiment: Inhibition of BRSK1 (unknown origin) at 1 uM relative to control
T2 sequence (whole entry): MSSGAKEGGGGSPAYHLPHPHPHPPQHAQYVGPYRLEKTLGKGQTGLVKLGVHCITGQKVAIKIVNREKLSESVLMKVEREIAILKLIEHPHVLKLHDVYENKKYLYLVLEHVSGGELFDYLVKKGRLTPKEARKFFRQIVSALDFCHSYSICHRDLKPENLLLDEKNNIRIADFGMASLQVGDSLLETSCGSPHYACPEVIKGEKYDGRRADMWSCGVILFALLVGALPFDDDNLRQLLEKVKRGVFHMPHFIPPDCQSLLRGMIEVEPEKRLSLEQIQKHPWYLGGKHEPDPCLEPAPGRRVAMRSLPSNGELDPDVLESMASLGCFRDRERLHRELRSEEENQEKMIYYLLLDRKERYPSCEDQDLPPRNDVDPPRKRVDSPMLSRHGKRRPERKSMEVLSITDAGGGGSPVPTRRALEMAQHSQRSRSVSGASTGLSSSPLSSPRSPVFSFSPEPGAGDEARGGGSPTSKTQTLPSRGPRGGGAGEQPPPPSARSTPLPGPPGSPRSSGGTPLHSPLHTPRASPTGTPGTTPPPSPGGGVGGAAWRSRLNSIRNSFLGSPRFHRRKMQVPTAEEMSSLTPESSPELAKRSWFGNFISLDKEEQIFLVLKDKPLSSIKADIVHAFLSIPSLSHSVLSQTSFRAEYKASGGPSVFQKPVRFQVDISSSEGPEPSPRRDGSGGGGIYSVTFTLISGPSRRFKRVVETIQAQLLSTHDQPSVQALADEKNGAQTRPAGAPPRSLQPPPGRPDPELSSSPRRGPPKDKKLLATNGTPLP

[22] = Oral bioavailability in cynomolgus monkey at 3 mg/kg by LC-ESI-TOF/MS or LC-ESI-MS/MS method; type: ADME, organism-based, Macaca fascicularis; settings: in vivo
[23] = Oral bioavailability in Beagle dog at 3 mg/kg by LC-ESI-TOF/MS or LC-ESI-MS/MS method; type: ADME, organism-based, Canis lupus familiaris; settings: in vivo
[24] = target: Interleukin-1 receptor-associated kinase 1 (Homo sapiens) (UniProt P51617); experiment: Inhibition of IRAK1 (unknown origin) at 1 uM relative to control
[25] = target: Calcium/calmodulin-dependent protein kinase type II subunit alpha (Homo sapiens) (UniProt Q9UQM7); experiment: Inhibition of CAMK2A (unknown origin) at 1 uM relative to control
[26] = target: Cyclin-dependent kinase 2 (Homo sapiens) (UniProt P24941); experiment: Inhibition of CDK2 (unknown origin) at 1 uM relative to control
[27] = target: Dual specificity mitogen-activated protein kinase kinase 2 (Homo sapiens) (UniProt P36507); experiment: Inhibition of MEK2 (unknown origin) at 1 uM relative to control
[28] = target: Rho-associated protein kinase 1 (Homo sapiens) (UniProt Q13464); experiment: Inhibition of ROCK1 (unknown origin) at 1 uM relative to control
[29] = target: Serine/threonine-protein kinase B-raf (Homo sapiens) (UniProt P15056); experiment: Inhibition of BRAF (unknown origin) at 1 uM relative to control
[30] = target: High affinity nerve growth factor receptor (Homo sapiens) (UniProt P04629); experiment: Inhibition of TRKA (unknown origin) at 1 uM relative to control
[31] = target: 5'-AMP-activated protein kinase catalytic subunit alpha-1 (Homo sapiens) (UniProt Q13131); experiment: Inhibition of AMPKA1 (unknown origin) at 1 uM relative to control
[32] = target: Serine/threonine-protein kinase pim-1 (Homo sapiens) (UniProt P11309); experiment: Inhibition of PIM1 (unknown origin) at 1 uM relative to control
[33] = target: 5'-AMP-activated protein kinase subunit beta-1 (Homo sapiens) (UniProt Q9Y478); experiment: Inhibition of AMPKB1 (unknown origin) at 1 uM relative to control
[34] = target: Dual specificity protein kinase CLK1 (Homo sapiens) (UniProt P49759); experiment: Inhibition of CLK1 (unknown origin) at 1 uM relative to control
[35] = target: Ribosomal protein S6 kinase alpha-1 (Homo sapiens) (UniProt Q15418); experiment: Inhibition of RSK1 (unknown origin) at 1 uM relative to control
[36] = target: 5'-AMP-activated protein kinase subunit gamma-1 (Homo sapiens) (UniProt P54619); experiment: Inhibition of AMPKG1 (unknown origin) at 1 uM relative to control

MAP kinase-interacting serine/threonine-protein kinase 2, sequence (Q9HBH9 whole entry): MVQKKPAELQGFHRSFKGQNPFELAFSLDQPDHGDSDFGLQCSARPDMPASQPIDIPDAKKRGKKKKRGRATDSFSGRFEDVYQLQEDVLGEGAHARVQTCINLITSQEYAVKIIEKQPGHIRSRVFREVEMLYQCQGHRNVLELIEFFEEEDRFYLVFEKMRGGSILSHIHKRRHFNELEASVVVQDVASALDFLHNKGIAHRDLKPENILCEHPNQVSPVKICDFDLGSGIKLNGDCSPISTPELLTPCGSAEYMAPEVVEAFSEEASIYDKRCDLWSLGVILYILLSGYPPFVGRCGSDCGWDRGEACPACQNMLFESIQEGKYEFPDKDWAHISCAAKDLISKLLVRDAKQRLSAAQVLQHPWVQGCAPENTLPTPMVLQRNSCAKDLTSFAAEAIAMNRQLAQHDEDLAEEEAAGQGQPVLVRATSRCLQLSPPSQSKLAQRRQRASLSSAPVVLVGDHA
Receptor-type tyrosine-protein kinase FLT3 (Homo sapiens), sequence (P36888 whole entry): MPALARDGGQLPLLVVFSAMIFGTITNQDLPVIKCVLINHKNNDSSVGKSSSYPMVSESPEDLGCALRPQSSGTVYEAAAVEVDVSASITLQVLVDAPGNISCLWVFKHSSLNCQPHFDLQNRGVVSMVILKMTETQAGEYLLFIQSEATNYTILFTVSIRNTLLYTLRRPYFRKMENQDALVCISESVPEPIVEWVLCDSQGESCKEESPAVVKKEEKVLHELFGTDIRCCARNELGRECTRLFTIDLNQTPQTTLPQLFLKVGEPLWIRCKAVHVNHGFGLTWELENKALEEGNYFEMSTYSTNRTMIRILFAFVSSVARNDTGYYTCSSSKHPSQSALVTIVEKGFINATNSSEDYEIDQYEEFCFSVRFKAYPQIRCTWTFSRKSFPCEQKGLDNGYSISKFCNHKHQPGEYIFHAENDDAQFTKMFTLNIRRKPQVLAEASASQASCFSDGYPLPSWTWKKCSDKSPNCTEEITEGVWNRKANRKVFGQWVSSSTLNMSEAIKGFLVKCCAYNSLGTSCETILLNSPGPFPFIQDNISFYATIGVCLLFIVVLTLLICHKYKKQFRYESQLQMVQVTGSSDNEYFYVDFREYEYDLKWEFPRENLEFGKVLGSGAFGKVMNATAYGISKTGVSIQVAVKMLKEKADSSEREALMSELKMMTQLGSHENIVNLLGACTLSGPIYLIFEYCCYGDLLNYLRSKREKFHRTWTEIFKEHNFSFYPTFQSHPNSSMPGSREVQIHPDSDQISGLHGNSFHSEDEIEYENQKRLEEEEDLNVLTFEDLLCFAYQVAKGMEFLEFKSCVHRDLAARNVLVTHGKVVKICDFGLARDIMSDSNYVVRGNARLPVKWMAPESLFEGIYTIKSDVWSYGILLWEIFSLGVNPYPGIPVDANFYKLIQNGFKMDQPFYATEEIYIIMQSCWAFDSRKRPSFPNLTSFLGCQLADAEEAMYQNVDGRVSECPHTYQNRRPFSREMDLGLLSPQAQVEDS
MAP kinase-interacting serine/threonine-protein kinase 1, sequence (Q9BUB5 whole entry): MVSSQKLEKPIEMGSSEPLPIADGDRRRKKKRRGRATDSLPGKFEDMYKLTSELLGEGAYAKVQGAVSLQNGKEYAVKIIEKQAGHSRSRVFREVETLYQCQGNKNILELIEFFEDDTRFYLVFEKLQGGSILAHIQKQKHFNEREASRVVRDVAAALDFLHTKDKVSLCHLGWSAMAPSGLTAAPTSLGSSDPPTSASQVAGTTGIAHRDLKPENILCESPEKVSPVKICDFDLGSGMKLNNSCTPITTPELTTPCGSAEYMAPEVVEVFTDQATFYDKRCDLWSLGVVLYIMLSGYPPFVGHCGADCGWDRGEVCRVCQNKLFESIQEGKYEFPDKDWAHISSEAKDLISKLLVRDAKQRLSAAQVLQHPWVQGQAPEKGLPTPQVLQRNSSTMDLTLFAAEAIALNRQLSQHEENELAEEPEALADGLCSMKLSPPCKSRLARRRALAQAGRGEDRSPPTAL
Vascular endothelial growth factor receptor 2 (Homo sapiens), sequence (P35968 whole entry): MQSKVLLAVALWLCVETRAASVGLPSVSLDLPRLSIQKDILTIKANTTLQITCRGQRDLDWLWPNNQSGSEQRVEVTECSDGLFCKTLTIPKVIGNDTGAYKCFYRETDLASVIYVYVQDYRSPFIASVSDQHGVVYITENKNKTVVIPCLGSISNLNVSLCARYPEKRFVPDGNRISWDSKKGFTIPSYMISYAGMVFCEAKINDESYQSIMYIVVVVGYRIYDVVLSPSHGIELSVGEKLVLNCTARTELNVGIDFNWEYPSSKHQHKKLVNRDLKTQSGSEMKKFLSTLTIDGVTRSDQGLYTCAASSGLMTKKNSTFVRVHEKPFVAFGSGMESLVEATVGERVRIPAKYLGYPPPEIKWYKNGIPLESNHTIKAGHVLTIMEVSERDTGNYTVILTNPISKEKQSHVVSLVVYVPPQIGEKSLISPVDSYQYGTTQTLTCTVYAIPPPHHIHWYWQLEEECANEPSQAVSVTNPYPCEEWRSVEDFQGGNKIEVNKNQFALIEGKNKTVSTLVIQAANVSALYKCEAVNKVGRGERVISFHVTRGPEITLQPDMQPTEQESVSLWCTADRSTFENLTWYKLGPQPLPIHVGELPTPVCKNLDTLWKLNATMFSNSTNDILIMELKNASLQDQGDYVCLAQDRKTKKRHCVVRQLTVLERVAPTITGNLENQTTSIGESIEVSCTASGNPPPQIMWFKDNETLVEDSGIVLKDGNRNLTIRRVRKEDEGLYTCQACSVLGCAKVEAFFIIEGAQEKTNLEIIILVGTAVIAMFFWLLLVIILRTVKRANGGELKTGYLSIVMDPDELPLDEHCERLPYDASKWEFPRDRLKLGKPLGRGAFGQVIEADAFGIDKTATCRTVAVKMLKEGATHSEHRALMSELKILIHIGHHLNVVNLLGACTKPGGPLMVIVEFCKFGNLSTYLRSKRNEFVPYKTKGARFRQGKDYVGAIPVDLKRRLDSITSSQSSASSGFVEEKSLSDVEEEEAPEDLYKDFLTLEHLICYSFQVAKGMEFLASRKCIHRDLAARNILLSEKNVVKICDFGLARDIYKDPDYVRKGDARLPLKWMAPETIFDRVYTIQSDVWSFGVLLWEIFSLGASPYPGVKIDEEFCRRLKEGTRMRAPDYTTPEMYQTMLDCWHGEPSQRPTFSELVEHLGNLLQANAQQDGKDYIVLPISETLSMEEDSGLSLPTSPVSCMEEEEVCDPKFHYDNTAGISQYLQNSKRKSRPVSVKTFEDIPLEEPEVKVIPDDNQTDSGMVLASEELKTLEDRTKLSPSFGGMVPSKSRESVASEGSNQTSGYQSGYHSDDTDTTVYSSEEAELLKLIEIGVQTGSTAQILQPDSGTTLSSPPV
Proto-oncogene tyrosine-protein kinase receptor Ret (Homo sapiens), sequence (P07949 whole entry): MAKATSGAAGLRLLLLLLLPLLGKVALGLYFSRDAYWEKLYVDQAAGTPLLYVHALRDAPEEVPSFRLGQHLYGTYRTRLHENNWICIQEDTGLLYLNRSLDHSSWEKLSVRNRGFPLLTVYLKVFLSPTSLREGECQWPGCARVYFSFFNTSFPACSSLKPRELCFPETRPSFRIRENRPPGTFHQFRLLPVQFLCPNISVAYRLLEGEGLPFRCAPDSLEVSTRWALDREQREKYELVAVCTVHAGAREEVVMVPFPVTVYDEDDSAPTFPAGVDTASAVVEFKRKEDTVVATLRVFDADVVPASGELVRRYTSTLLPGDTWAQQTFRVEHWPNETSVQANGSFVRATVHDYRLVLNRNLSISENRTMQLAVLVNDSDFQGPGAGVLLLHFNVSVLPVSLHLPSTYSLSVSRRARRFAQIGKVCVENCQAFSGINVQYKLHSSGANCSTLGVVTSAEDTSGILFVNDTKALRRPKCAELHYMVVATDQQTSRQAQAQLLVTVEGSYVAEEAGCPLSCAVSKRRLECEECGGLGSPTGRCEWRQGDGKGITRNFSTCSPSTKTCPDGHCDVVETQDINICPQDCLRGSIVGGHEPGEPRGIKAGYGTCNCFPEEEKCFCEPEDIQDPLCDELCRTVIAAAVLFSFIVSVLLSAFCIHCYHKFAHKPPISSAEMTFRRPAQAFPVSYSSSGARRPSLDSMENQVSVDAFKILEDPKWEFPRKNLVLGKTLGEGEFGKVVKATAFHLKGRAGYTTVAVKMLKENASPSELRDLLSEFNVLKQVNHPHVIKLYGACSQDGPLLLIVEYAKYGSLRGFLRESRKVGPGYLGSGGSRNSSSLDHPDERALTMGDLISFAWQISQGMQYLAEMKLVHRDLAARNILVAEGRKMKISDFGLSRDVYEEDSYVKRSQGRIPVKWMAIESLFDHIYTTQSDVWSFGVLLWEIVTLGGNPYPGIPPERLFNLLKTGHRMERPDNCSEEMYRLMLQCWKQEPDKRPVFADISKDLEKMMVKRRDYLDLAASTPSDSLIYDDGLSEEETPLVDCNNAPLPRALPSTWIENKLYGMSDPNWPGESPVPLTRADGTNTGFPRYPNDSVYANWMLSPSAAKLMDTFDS
Dual specificity mitogen-activated protein kinase kinase 2 (Homo sapiens), sequence (P36507 whole entry): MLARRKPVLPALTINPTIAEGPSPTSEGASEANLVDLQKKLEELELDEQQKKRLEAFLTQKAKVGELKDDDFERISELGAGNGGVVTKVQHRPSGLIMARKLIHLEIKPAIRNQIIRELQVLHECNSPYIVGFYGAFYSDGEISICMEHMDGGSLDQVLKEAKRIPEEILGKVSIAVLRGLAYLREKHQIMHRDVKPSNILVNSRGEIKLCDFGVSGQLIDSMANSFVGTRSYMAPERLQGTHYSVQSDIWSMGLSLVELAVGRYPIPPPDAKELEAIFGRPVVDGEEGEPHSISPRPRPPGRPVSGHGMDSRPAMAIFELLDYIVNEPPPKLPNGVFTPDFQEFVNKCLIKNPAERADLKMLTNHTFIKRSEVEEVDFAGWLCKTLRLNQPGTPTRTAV
5'-AMP-activated protein kinase subunit beta-1 (Homo sapiens), sequence (Q9Y478 whole entry): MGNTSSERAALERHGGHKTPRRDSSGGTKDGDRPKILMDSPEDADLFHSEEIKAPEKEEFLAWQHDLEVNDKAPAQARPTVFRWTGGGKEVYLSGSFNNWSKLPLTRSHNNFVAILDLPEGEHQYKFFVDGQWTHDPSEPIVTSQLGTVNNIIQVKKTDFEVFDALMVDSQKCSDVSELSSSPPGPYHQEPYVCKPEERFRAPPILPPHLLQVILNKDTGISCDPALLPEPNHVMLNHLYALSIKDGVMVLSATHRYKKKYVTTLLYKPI

SMILES: NC(=O)c1cccn2c(-c3cccnc3)cnc12
IC50 [1]: 6400 nM

SMILES: CC1(c2cccc(Cl)c2)NC(=O)c2c(Cl)cc(Nc3cc(NC(=O)C4CC4)ncn3)c(=O)n21 (stereo not given)
EC50 (HCT-116): 2700 nM
inhibition [2]: 10%
inhibition [3]: 10%
inhibition [4]: 10%
inhibition [5]: 10%
inhibition [6]: 10%
inhibition [7]: 10%
EC50 (SW-620): 2800 nM
inhibition [8]: 10%
inhibition [9]: 10%
inhibition [10]: 10%
inhibition [11]: 10%

SMILES: CC1NC(=O)c2ccc(Nc3ccncn3)cc21 (stereo not given)
IC50 [12]: 28000 nM
IC50 [13]: 45 nM
IC50 [1]: 28 nM

SMILES: NC(=O)c1ccc(Nc2ccncn2)cc1
IC50 [1]: 690 nM

SMILES: c1cc(-c2cc(C3CCNCC3)[nH]n2)ccn1
IC50 [1]: 5500 nM

SMILES: NC(=O)c1ccc(Nc2ccncn2)c(=O)[nH]1
IC50 [1]: 3000 nM

SMILES: Cc1n[nH]c(C)c1-c1ccc(C2CCCN2)cc1 (stereo not given)
IC50 [1]: 4700 nM

SMILES: CC1(C)NC(=O)c2ccc(Nc3cc(NC(=O)C4CC4)ncn3)c(=O)n21
EC50 (HCT-116): > 30000 nM
inhibition [2]: 4%
EC50 (PC-3): > 30000 nM
inhibition [3]: 4%
inhibition [6]: 4%
EC50 (SW-620): > 30000 nM
inhibition [8]: 4%

SMILES: O=C1NCc2cc(Nc3cc(NC(=O)C4CC4)ncn3)ccc21
IC50 [12]: 430 nM
IC50 [13]: 5.7 nM
IC50 [1]: 1.9 nM

SMILES: N[C@H]1C[C@H](Oc2ccc3ncc(-c4ccc5cnccc5c4)n3n2)C1
inhibition [24]: 17%
IC50 [12]: 120 nM
EC50 (HCT-116): 210 nM
EC50 (PC-3): 590 nM
inhibition [25]: 17%
inhibition [3]: 17%
IC50 [13]: 7.8 nM
inhibition [26]: 17%
inhibition [27]: 17%
inhibition [28]: 17%
inhibition [6]: 17%
inhibition [7]: 17%
IC50 [1]: 1.5 nM
EC50 (SW-620): 310 nM
inhibition [29]: 17%
inhibition [30]: 17%
inhibition [9]: 17%
inhibition [31]: 17%
inhibition [32]: 17%
inhibition [10]: 17%
inhibition [33]: 17%
inhibition [34]: 17%
inhibition [35]: 17%
inhibition [36]: 17%

The remaining lines, values ahead:

IC50 [12]: 0.084 nM
IC50 [13]: 0.36 nM
SMILES: Nc1ncnc(Nc2cc(Cl)c3n(c2=O)C2(CCCCC2)NC3=O)c1Cl

IC50 [1]: 3800 nM
SMILES: c1ccc(-c2n[nH]c3ccc(-c4ccncc4)cc23)cc1

IC50 [1]: 1800 nM
SMILES: c1cnn2c(-c3ccncc3)cnc2c1

IC50 [12]: 4400 nM
IC50 [13]: 61 nM
IC50 [1]: 100 nM
SMILES: CC1(C)NC(=O)c2ccc(Nc3ccncn3)cc21

IC50 [1]: 60 nM
SMILES: NC(=O)c1ccc(Nc2ncnc3[nH]cnc23)cc1

Papp A→B at 2 h, 5 µM (in vitro): 0.9 ×10⁻⁶ cm/s
bioavailability [14]: 79%
inhibition [15]: 67%
remaining at 0.5 h, 1 µM [16]: 100%
inhibition [3]: 74%
inhibition [17]: 88%
bioavailability [18]: 50%
logP (physchem): 1.8
remaining at 0.5 h, 1 µM [19]: 95%
remaining at 0.5 h, 1 µM [20]: 100%
inhibition [21]: 52%
bioavailability [22]: 54%
bioavailability [23]: > 100%
SMILES: CC1(C)NC(=O)c2c(Cl)cc(Nc3cc(N)ncn3)c(=O)n21

bioavailability [14]: 85%
remaining at 0.5 h, 1 µM [16]: 100%
inhibition [17]: 68%
bioavailability [18]: 56%
IC50 [1]: 1.4 nM
remaining at 0.5 h, 1 µM [19]: 99%
remaining at 0.5 h, 1 µM [20]: 97%
bioavailability [22]: 58%
bioavailability [23]: > 100%
SMILES: Cc1cc(Nc2cc(N)ncn2)c(=O)n2c1C(=O)NC21CCC(F)(F)CC1

IC50 [1]: 23 nM
SMILES: O=C1NCc2cc(Nc3ncnc4[nH]cnc34)ccc21
